From ChEMBL document CHEMBL3867463, “Cytotoxic lanostanes from fruits of Garcinia wallichii Choisy (Guttiferae)” (Bioorg Med Chem Lett, 2016) come the findings set out here.

Series [1] in a line: Cytotoxicity against human KB cells by SRB method. The class given is functional. The conditions noted are these: read-out: ED50 (the source's name). On the technique in general: The SRB assay estimates cell density from bound dye.
The nature of series [2]: Cytotoxicity against mouse P388 cells by SRB method. The class given is functional. The note with it: read-out: ED50 (the source's name).
Series [3] can be described thus: Cytotoxicity against human MCF7 cells by SRB method. It counts as functional. The note with it: read-out: ED50 (the source's name).
Series [4] can be described thus: Cytotoxicity against human HEK293 cells by SRB method. The class given is toxicity, cell-based. The conditions noted are these: read-out: ED50 (the source's name).
The nature of series [5]: Cytotoxicity against human colon cancer cells by SRB method. The note with it: Cancer cell lines, read-out: ED50 (the source's name). The class given is functional.
The nature of series [6]: Cytotoxicity against human HT-29 cells by SRB method. It counts as functional. The conditions noted are these: read-out: ED50 (the source's name).
The nature of series [7]: Cytotoxicity against human A549 cells by SRB method. It counts as functional. The conditions noted are these: read-out: ED50 (the source's name).
Series [8] is described as follows: Cytotoxicity against rat ASK cells by SRB method. The class given is functional. The note with it: read-out: ED50 (the source's name).

As to `C/C(=C\C=C\[C@@H](C)[C@H]1CC[C@@]2(C)[C@@H]3CC[C@H]4C(C)(C)C(=O)CC[C@]4(C)[C@@]3(O)CC[C@]12C)C(=O)O`, the EC50 in series [1], in series [2], in series [3], in series [5], in series [6] and in series [7] was greater than 50 µM throughout. The EC50 in series [8] was greater than 50 µM. Besides, the CC50 in series [4] is greater than 50 µM.

As for `COC(=O)/C(C)=C/C=C/[C@@H](C)[C@H]1CC[C@@]2(C)[C@@H]3CC[C@H]4C(C)(C)[C@]5(O)CC[C@]4(CO5)[C@@]3(O)CC[C@]12C`, the EC50 in series [1], in series [2], in series [3], in series [5], in series [6] and in series [7] was greater than 50 µM throughout. In series [8], the EC50 was greater than 50 µM. Further, the CC50 in series [4] is greater than 50 µM.

As to `C/C(=C\C=C\[C@@H](C)[C@H]1CC[C@@]2(C)[C@@H]3CC[C@H]4C(C)(C)[C@]5(O)CC[C@]4(CO5)[C@@]3(O)CC[C@]12C)C(=O)O`, the EC50 in series [1] was found to be 4.79 µM; in series [2] it was 3.91 µM; in series [3], 6.19 µM; in series [5], 4.73 µM; in series [6] it was 5.39 µM; in series [7], 5.69 µM. The EC50 in series [8] was found to be 7.63 µM. For the same compound, in series [4], the CC50 amounted to 6.89 µM.

`C/C(=C\CC[C@@H](C)[C@H]1CC[C@@]2(C)[C@@H]3CC[C@H]4C(C)(C)[C@@H](O)CC[C@]4(C)[C@@]3(O)CC[C@]12C)C(=O)O`: the EC50 in series [1] is 29.9 µM; in series [2] it was 24.1 µM; in series [3] it was greater than 50 µM; in series [5] it was greater than 50 µM; in series [6] it was 23.7 µM; in series [7], 35.1 µM. The EC50 in series [8] is greater than 50 µM. Further, the CC50 in series [4] is greater than 50 µM.

As to `COC(=O)/C(C)=C/C=C/[C@@H](C)[C@H]1CC[C@@]2(C)[C@@H]3CC[C@H]4C(C)(C)C(=O)CC[C@]4(C)C3=CC[C@]12C`, the EC50 in series [1], in series [2], in series [3], in series [5], in series [6] and in series [7] was greater than 50 µM in each case. Also, in series [8], the EC50 was greater than 50 µM. Further, the CC50 in series [4] is greater than 50 µM.

Take `C/C(=C\CC[C@@H](C)[C@H]1CC[C@@]2(C)[C@@H]3CC[C@H]4C(C)(C)C(=O)CC[C@]4(C)[C@@]3(O)CC[C@]12C)C(=O)O`: the EC50 in series [1], in series [2], in series [3], in series [5], in series [6] and in series [7] was greater than 50 µM throughout. The EC50 in series [8] is greater than 50 µM. Further, the CC50 in series [4] was greater than 50 µM.

On to `Cc1c2ccncc2c(C)c2c1[nH]c1ccccc12` [ELLIPTECINE], for which the EC50 in series [1] turned out to be 2.03 µM; in series [2], 2.15 µM; in series [3], 2.11 µM; in series [5] it was 2.19 µM; in series [6], 2.43 µM; in series [7] it was 1.26 µM. For the same compound, the EC50 in series [8] amounted to 2.31 µM. In addition, in series [4], the CC50 worked out at 2.03 µM.
